Laboratory results taken from ChEMBL document CHEMBL1135815, “Design, synthesis, and pharmacological evaluation of new farnesyl protein transferase inhibitors” (J Med Chem, 2002).

Experiments:
[1] = biological target: Geranylgeranyl transferase type I (Homo sapiens, UniProt P49354+P53609); test: Inhibition of Geranylgeranyl transferase type I (GGPT I) catalyzed transfer of GGPP to dansyl-GCVLL; assay type: protein-complex assay
[2] = biological target: Protein farnesyltransferase (Homo sapiens, UniProt P49354+P49356); test: Inhibition of Farnesyltransferase catalyzed transfer of the FPP moiety to dansyl-GCVLS; assay type: protein-complex assay

Row | Compound | IC50 [1] [µM] | IC50 [2] [µM]
1 | COC(=O)[C@H](CCSC)N(C(=O)c1ccccc1)C1CCN(C(=O)c2cscn2)CC1 | > 100 | 52.5
2 | COC(=O)[C@H](CCSC)N(C(=O)c1ccccc1)C1CCN(Cc2c[nH]cn2)CC1 | > 100 | 16.2
3 | COC(=O)[C@H](CCSC)N(C(=O)c1ccccc1)C1CCN(Cc2cscn2)CC1 | > 100 | 41.7
4 | COC(=O)[C@H](CCSC)N(C(=O)c1ccccc1)C1CCN(C(=O)[C@H]2CSCN2)CC1 |  | > 100
5 | COC(=O)[C@H](CCSC)N(C(=O)c1ccccc1)C1CCNCC1 |  | > 100

Now those with a lower IC50 [2], led by results:

Row | IC50 [1] [µM] | IC50 [2] [µM] | Compound
6 | > 100 | 0.072 | CSCC[C@H](NC(=O)c1ccc(NC(=O)[C@@H](N)CS)cc1)C(=O)O
7 | 5.1 | 0.034 | CSCCC(NC(=O)[C@H](Cc1ccccc1)NCC[C@@H](C)CNC[C@H](N)CSC)C(=O)O (stereo partly specified)
8 | > 100 | 2.14 | COC(=O)[C@H](CCSC)N(C(=O)c1ccccc1)C1CCN(C(=O)[C@@H]2CSCN2)CC1
9 | > 100 | 0.02 | COC(=O)[C@H](CCSC)N(C(=O)c1ccccc1)C1CCN(C(=O)C(N)CS)CC1 (stereo partly specified)
